Like-named read-outs stand apart in the source and are kept apart here.
How the values were obtained:
[1] = Example 7: ascending dose study in obese subjects, pharmacokinetics
Protocol: This example involved a clinical study of the compound of formula (I), which was a randomized, double-blind, placebo-controlled, ascending dose study to evaluate the safety, tolerability and pharmacokinetics/pharmacodynamics of the compound of formula (I) tablets administered twice daily for two weeks in obese subjects.
The subjects were separated into four arms of nine (one with ten) test subjects (which were administered the compound of formula (I)) and three placebo subjects.

[2] = Example 3: pharmacokinetics; assay type: in vivo, human; settings: both active groups
MTP = MTP (Homo sapiens, UniProt P55157)
[3] = Example 1: plasma and urine concentrations by LC/MS/MS
[4] = Example 6: pharmacokinetics; assay type: in vivo, human
Source text: Originally, the study was planned as 4 sequential cohorts of healthy male Caucasian subjects (Cohorts 1 to 4) followed by a cohort of male Caucasian patients with elevated triglycerides (HTG patients, Cohort 5). An additional cohort of healthy male Caucasian subjects (Cohort 4.1) was enrolled into the study (6 cohorts in total). The cohorts were as follows: Cohorts 1 to 4.1 had healthy Caucasian males, aged 18-45 years with a body weight of 60-100 kg and body mass index (BMI) between 19-28 kg/m^2 at screening and fasting triglycerides less than 1.69 mmol/L (less than 150 mg/dL) at the screening visit and Day-3. Cohort 5 had Caucasian males, aged 18-50 years with a body weight of 60-115 kg and BMI less than 35 kg/m^2 at screening and with elevated fasting triglycerides (TG≧1.69 mmol/L and <5.62 mmol/L; ≧150 mg/dL and <500 mg/dL) at the screening visit and Day-3.
The planned treatment for Cohorts 1 to 4 was twice daily administration of 5 mg, 10 mg or 15 mg the compound of formula (I)/placebo, or once daily administration of 30 mg the compound of formula (1)/placebo. […] As only the compound of formula (I) 5 mg capsules were supplied for this study, doses were administered once daily to determine the maximum tolerated dose, and the planned doses for each subsequent cohort were amended based on the safety and tolerability data obtained from the preceding cohort. The dose level and dosing schedule planned for the patients in Cohort 5 was determined by the maximum tolerated dose and dosing schedule as reported from the planned Cohorts 1 to 4.1.
Twelve healthy male Caucasian subjects were enrolled in each of Cohorts 1 to 4.1; dose cohorts were randomized in a ratio 9:3 to receive the compound of formula (I) or placebo, respectively, at the dose level associated with that cohort. Twelve male Caucasian patients with elevated triglycerides were randomized in a ratio of 8:4 to receive the compound of formula (I) or placebo, respectively, at the maximum tolerated dose level and dosing schedule.

[5] = Example 2: plasma and urine pharmacokinetics; assay type: in vivo, human
Protocol: Each tablet contained 5 mg (BID), 10 mg (QD), 20 mg (QD), or 30 mg (QD).

[6] = Example 5: pharmacokinetics; assay type: in vivo, human
Protocol: Fifty-two Japanese patients with hyperlipidemia (LDL-C between 140 and 220 mg/dL; TG≦400 mg/dL) participated in the study. […] One group received a fixed dose of 2 mg per tablet through the entire study. The other group received escalating doses of 0.5 mg (weeks 1-4), 1 mg (weeks 5-8), and 2 mg (weeks 9-12). For the efficacy analysis, 50 subjects were observed (25 in the fixed-dose group and 25 in the dose escalation group).
The objective of this study was preliminary evaluation of the efficacy (based on serum lipid levels), safety, and pharmacokinetics of the compound of formula (I) administered orally twice daily after breakfast and supper for 12 weeks as a fixed dose (4 mg/day) or escalating dose (1 mg/day, 2 mg/day and 4 mg/day) regimen in patients with hyperlipidemia.

[7] = in vivo
Source text: This example involved a clinical study of the compound of formula (I), which was a randomized, double-blind, placebo-controlled, parallel group study to evaluate the efficacy of the compound of formula (I) administered twice daily for twelve weeks in obese subjects.

Sequence of MTP (P55157 19-894, species assumed): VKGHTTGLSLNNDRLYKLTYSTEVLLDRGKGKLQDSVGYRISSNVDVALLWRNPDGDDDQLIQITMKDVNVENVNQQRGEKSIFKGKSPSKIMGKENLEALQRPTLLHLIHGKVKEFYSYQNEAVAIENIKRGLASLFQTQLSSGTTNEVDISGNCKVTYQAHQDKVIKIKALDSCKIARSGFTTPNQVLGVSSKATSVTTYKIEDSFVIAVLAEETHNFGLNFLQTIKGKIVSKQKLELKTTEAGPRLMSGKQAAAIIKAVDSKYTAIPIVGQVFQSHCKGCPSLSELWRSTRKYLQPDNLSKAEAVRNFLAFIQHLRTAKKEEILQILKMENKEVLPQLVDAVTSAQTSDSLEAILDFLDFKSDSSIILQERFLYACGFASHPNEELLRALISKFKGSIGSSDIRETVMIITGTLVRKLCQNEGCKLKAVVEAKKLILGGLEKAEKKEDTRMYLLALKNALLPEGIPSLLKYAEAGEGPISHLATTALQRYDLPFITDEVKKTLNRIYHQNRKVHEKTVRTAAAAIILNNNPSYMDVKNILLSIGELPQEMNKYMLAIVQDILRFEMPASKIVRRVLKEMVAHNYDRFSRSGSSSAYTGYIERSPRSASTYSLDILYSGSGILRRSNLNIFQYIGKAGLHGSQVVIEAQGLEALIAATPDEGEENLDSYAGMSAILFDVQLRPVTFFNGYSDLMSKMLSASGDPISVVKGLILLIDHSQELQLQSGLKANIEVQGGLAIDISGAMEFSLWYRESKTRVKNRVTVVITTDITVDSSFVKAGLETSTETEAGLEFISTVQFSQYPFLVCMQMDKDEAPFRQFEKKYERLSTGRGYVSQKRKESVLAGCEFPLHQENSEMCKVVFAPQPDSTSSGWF
Sequence of MTP (P07237 18-508 partner, species assumed): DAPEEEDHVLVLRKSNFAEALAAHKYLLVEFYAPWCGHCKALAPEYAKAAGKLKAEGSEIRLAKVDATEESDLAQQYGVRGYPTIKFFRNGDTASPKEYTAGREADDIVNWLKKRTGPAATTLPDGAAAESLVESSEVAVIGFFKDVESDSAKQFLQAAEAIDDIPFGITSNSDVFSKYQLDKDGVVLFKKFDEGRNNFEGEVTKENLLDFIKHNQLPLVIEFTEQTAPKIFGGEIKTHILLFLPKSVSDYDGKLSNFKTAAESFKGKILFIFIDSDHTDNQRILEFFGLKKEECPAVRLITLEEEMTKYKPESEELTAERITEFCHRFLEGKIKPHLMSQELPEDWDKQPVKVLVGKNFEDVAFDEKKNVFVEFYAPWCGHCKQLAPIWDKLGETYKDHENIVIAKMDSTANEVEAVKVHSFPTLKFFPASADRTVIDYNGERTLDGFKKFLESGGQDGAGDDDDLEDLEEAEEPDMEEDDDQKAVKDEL

## CN(C)C(=O)c1cc(CC(=O)O)ccc1NC(=O)c1ccccc1-c1ccc(C(F)(F)F)cc1 [metabolite M1, 2-(3-(dimethylcarbamoyl)-4-(4′-(trifluoromethyl)biphenyl-2-ylcarboxamido)phenyl)acetic acid]
[1]; 1 mg group
  mean t1/2: 70.1 h
[1]; 1 and 2.5 mg groups
  time to reach steady-state: 7 days
[1]; 1 to 5 mg
  Cmax and AUC0-τ dose proportionality (M1): dose proportional increase
[1]; 3.5 and 5 mg groups
  time to reach steady-state: 5 days
[2]
  plasma metabolite M1: quantifiable
MTP
  MTP inhibitory activity: no MTP inhibitory activity
MTP; listed as M1
  MTP inhibitory activity: inactive
[3]; 5 mg group, Day 2
  mean Cmin: 8.33 ng/mL
[3]; 5 mg group, Day 6
  mean Cmin: 25.97 ng/mL
  mean Cmin relative to Day 2: 3.12 times
[3]; 15 mg group, Day 2
  mean Cmin: 33.57 ng/mL
[3]; 15 mg group, Day 8
  mean Cmin: 181.90 ng/mL
  mean Cmin relative to Day 2: 5.42 times
[3]; 5 and 15 mg groups
  excretion in urine (metabolite): excreted in urine in all subjects
[3]; all subjects receiving compound
  detection of metabolite in plasma: detected in plasma of all subjects
[4]; 5 mg BID, healthy
  mean apparent terminal half-life: approximately 27 h
[4]; 5 mg, Cohort 5 vs Cohort 1
  systemic availability (AUC0-τ and Cmax) in patients vs subjects with normal triglycerides: appeared to be greater
[4]; 5 mg, HTG patients
  mean apparent terminal half-life: approximately 30 h
[4]; 5 to 20 mg QD and BID, healthy subjects and patients
  time to steady-state: ~8 days
[4]; 5 to 20 mg QD, healthy
  extent of systemic exposure, dose proportionality: greater than dose-proportional
[4]; 14 days administration, adjusted for molecular weight
  urinary recovery up to 72 h post-last dose: up to 20 % of the total administered dose
[4]; first administration
  urinary recovery: less than 8 % of the administered dose
[5]; 10, 20, 30 mg QD, initial dose Day 1
  Cmax and AUC0-24hr dose proportionality (M1): greater than a dose-proportional
[5]; Day 2 to 14, all groups
  Cmin of the metabolite M1: quantifiable
[5]; after initial dose on Day 1, all groups
  plasma metabolite M1: quantifiable
[5]; all groups
  metabolite M1 in urine: excreted in urine
[5]; final dose on Day 14
  Cmax and AUC dose proportionality (M1): dose-proportional
[6]; dose escalation group, Week 10
  mean Cmin: 12.15 ng/mL
[6]; dose escalation group, Week 10, females
  mean Cmin: 12.06 ng/mL
[6]; dose escalation group, Week 10, males
  mean Cmin: 12.28 ng/mL
[6]; dose escalation group, Week 12
  mean Cmin: 13.47 ng/mL
[6]; dose escalation group, Week 12, females
  mean Cmin: 15.28 ng/mL
[6]; dose escalation group, Week 12, males
  mean Cmin: 10.76 ng/mL
[6]; fixed-dose group, Week 10
  mean Cmin: 12.20 ng/mL
[6]; fixed-dose group, Week 12
  mean Cmin: 10.74 ng/mL
[7]
  mean trough concentration of M1: increased in a dose-related manner
